Laboratory results: patent publication US5326774A, “Pharmaceutical preparation of antihypertensive, antianginal, antiarrhythmic and antiglaucomic action” (priority 1992, dated 1994)
“Also recorded” adds a separate entry of the source. Where two headings read alike, the source gives them in different places.

How the values were obtained:
β-adrenoceptor = assay: Partial agonistic activity and non-specific membrane-stabilizing effect
heart rate = assay: Heart rate in anesthetized rats, i.v.; assay type: in vivo, rat; conditions: for heart rate: control 271±7
Description: β-adrenoceptor blocking activity of the active principle of the pharmaceutical preparation of the invention was studied. […]. The test substances were injected to several groups of animals (6-10 individuals each) in the graded doses of 0.001, 0.0025, 0.01, 0.025, and 0.1 mg/kg.
From the dosage of […] it gave rise to the lowering of arterial pressure (from 159±9 in the control to 141±11, 127±10 and 123 ±11 mm Hg in the dosages of 0.01, 0.025 and 0.1 mg/kg). From the dosage of 0.0025 mg/kg the compound of the invention gave rise to the dose-related suppression of the isadrin-initiated depressor effect (by 12,63, 82 and 90% in doses of 0.0025, 0.01, 0.025 and 0.1 mg/kg) and, starting from the dosage of […], a positive chronotropic (by 25, 46 and 78% in doses of 0.01, 0.025 said 0.1 mg/kg, respectively) effect.

ventricular fibrillation = assay: Ventricular fibrillation during acute coronary occlusion and reperfusion in anesthetized dogs; assay type: in vivo, dog; conditions: single animals, hydrochloride
[1] = test system: mesaton-initiated pressor effect; assay: Mesaton-initiated pressor effect in anesthetized rats; assay type: in vivo, rat
[2] = test system: mesaton-initiated pressor effect; assay: Mesaton-initiated pressor effect in cats; parameters: species or system cat; conditions: in vivo (rats and cats), i.v.
Description: The same tests were carried out on cats.

[3] = test system: intraocular tension of intact rabbit eyes; conditions: for Average decrease of intraocular tension OD, M ± m / Intraocular tension level OD, M ± m: 1% solution
Description: The effects of the compound according to the invention on intraocular tension and hydrodynamics of the eye was tested in 28 chinchilla rabbits with body weight of 2.5-3.5 kg.
The left animal eyes were control wherein using the same procedure a diluent was instilled.

coronary vessels = assay: Coronary vessel dilatation and myocardial perfusion in anesthetized rats; assay type: in vivo, rat; conditions: 0.1 mg/kg i.v. (compound of the invention); hydrochloride
Description: The coronarodilative effect of the compound according to the invention is not associated with its β- and α-adrenoceptor blocking activity and its influence on the systemic perfusion pressure and pump function of the heart. […]

[4] = Solubility of the active principle; assay type: physicochemical

SMILES: Cc1noc(COc2ccccc2OCC(O)CNC(C)(C)C)n1.Cl (stereo not shown) [Compound of the invention, 3-methyl-5-[2-(3-tert.butylamino-2-hydroxypropoxy)phenoxymethyl]-1,2,4-oxadiazole hydrochloride]
- non-specific membrane-stabilizing effect (β-adrenoceptor): has a non-specific membrane-stabilizing effect
- partial agonistic activity (β-adrenoceptor): fails to exhibit a partial agonistic activity
- heart rate (heart rate; 0.0025 mg/kg i.v.): 249±11 beat/min.
- heart rate (heart rate; 0.01 mg/kg i.v.): 238±16 beat/min.
- heart rate (heart rate; 0.025 mg/kg i.v.): 204±14 beat/min.
- heart rate (heart rate; 0.1 mg/kg i.v.): 181±14 beat/min.
- minimal effective dose (heart rate; Rattus norvegicus, iv, read-out: dosage from which heart rate decreased): 2.5 µg/kg
- Ventricular fibrillation during acute occlusion and reperfusion (ventricular fibrillation; 10 min after injection): R
- Ventricular fibrillation during acute occlusion and reperfusion (ventricular fibrillation; 60 min after injection): R
- effect on mesaton pressor effect ([1]; 3 mg/kg i.v.): did not change
- suppression of mesaton pressor effect ([1]; 10 mg/kg i.v., average): 76%
- adrenoceptor blocking activity compared with labetalol [2]: did not differ from labetalol
- tolerability for rabbit eyes ([3]; 0.5, 1 and 2% solutions): well-tolerable
- Average decrease of intraocular tension OD, M ± m ([3]; 1 hour): 1.9 ± 0.3 ram of Hg column
- Intraocular tension level OD, M ± m ([3]; 1 hour): 17.1 ± 0.3 ram of Hg column
- Average decrease of intraocular tension OD, M ± m ([3]; 2 hours): 2.6 ± 0.2 ram of Hg column
- Intraocular tension level OD, M ± m ([3]; 2 hours): 16.5 ± 0.4 ram of Hg column
- Average decrease of intraocular tension OD, M ± m ([3]; 3 hours): 2.3 ± 0.3 ram of Hg column
- Intraocular tension level OD, M ± m ([3]; 3 hours): 17.1 ± 0.4 ram of Hg column
- Average decrease of intraocular tension OD, M ± m ([3]; 4 hours): 2.3 ± 0.3 ram of Hg column
- Intraocular tension level OD, M ± m ([3]; 4 hours): 17.1 ± 0.2 ram of Hg column
- Average decrease of intraocular tension OD, M ± m ([3]; 5 hours): 1.5 ± 0.5 ram of Hg column
- Intraocular tension level OD, M ± m ([3]; 5 hours): 17.6 ± 0.4 ram of Hg column
- Average decrease of intraocular tension OD, M ± m ([3]; 6 hours): 1.2 ± 0.4 ram of Hg column
- Intraocular tension level OD, M ± m ([3]; 6 hours): 17.8 ± 0.4 ram of Hg column
- Average decrease of intraocular tension OD, M ± m ([3]; 24 hours): 0.8 ± 0.5 ram of Hg column
- Intraocular tension level OD, M ± m ([3]; 24 hours): 18.2 ± 0.7 ram of Hg column
- mechanism of lowering of intraocular tension ([3]; intact rabbit eyes): decrease in secretion of surface water (watery moisture)
- duration of lowering of intraocular tension ([3]; intact rabbit eyes, 0.5, 1 and 2% solutions): 6 to 8 h
- irritating effect ([3]; rabbit, in vivo): no irritating effect
- pupil value ([3]; rabbit, in vivo): do not change considerably the pupil value
- coronary vessel dilatation / myocardial perfusion (coronary vessels): dilatation (with confidence) of coronary vessels; also recorded: direct coronarodilating effect
- solubility in ethyl ether [4]: substantially insoluble
- solubility in water, chloroform, ethanol [4]: readily soluble
